# Test results taken from US10920265B2, “Compounds and methods for detection of enzymes that remove methyl succinyl groups from epsilon-amino lysine moieties” (Enzo Life Sciences, Inc., priority 2011, dated 2021).
# What was measured:
# [1] = system: HeLa Nuclear Extract; assay: Activity of HeLa nuclear extract with fluorogenic lysyl substrates; assay type: biochemical, human; conditions: 50 μM substrate
# Experimental: (§1) The Ac-Lys(Succ.)-AMC substrate was tested for activity with recombinant preparations of human HDACs 1-11, SIRTs 1-4, 6 and 7, a complex of HDAC3 with a fragment of the activating protein NCOR1 and with HeLa nuclear extract, a rich source of active HDACs in their native multiprotein complexes.
# (§2) Enzyme and extract catalog products obtained from ENZO Life Sciences included: HDAC1 (Cat. # BML-SE456), HDAC2 (Cat. # BML-SE500), HDAC3 (Cat. # BML-SE507), HDAC3/NCOR1 Complex (Cat. # BML-SE515), HDAC6 (Cat. # BML-SE508), HDAC8 (Cat. # BML-SE145), HDAC10 (Cat. # BML-SE559), HDAC11 (Cat. # BML-SE560), SIRT1 (Cat. # BML-SE239), SIRT2 (Cat. # BML-SE251), SIRT3 (Cat. # BML-SE270), SIRT5 (Cat. # BML-SE555), HeLa Nuclear Extract (Cat. # BML-KI140), Trypsin (“Fluor de Lys Developer”, 80 mg/ml bovine trypsin in 1 mM HCl, Cat. # BML-KI105 or “Fluor de Lys Developer II”, 80 mg/ml bovine trypsin in 1 mM HCl, Cat. # BML-KI176). […] Enzymes obtained from BPS Bioscience, San Diego, Calif. included: human recombinants SIRT4 (Cat. #50015), SIRT6 (Cat. #50017), SIRT7 (Cat. #50018). HeLa whole cell extract was obtained from HeLa S3 cells (American Type Culture Collection) grown in a medium of MEM/10% fetal bovine serum (FBS) as follows: 1) 9×10^6 cells were suspended by trypsinization, followed by a phosphate buffered saline (PBS) rinse and addition of MEM/10% FBS (1.5 mL) to eliminate trypsin before transfer to a 15 mL conical tube; 2) cells were sedimented by a low speed centrifugation, gently resuspended in PBS and sedimented again and supernatant removed; 3) lysis was induced by resuspension in 0.8 mL 50 mM Tris/HCl, pH 8.0 with the non-denaturing detergent NP-40 (0.5%), placement on ice and brief vortexing every 5 min. for 30 min.; 4) 100 μl of a concentrated salt solution in the same buffer was added in order to bring the final buffer composition to 50 mM Tris/C1, pH 8.0, 137 mM NaCl, 2.7 mM KCl, 1 mM MgCl2, 0.5% NP-40; 5) particulate matter was cleared by centrifugation and the cleared lysate supernatant transferred to a 1.5 mL Eppendorf tube and stored on ice until use in activity assays.
# (§3) Assays were performed at 37° C., according to the manufacturer's instructions for the “SIRT1 Fluorometric Drug Discovery Kit” from Enzo Life Sciences (ELS) (Cat. # BML-AK555), with exceptions described as follows. Where indicated in figures and text, SIRT1 enzyme was replaced with another enzyme or extract and the “Fluor de Lys-SIRT1 Substrate” (Ac-Arg-His-Lys-Lys(Ac)-AMC; ELS Cat. # BML-KI-177) was replaced with another acetylated, succinylated or trifluoroacetylated substrate.
# [2] = molecular target: T1, SIRT3 (Homo sapiens, UniProt Q9NTG7); assay: Sirtuin activity with fluorogenic lysyl substrates; assay type: biochemical; conditions: 50 μM substrate, 500 μM NAD^+
# T1 construct: purchased ENZO Life Sciences BML-SE270
# T1 sequence (Q9NTG7 1-399): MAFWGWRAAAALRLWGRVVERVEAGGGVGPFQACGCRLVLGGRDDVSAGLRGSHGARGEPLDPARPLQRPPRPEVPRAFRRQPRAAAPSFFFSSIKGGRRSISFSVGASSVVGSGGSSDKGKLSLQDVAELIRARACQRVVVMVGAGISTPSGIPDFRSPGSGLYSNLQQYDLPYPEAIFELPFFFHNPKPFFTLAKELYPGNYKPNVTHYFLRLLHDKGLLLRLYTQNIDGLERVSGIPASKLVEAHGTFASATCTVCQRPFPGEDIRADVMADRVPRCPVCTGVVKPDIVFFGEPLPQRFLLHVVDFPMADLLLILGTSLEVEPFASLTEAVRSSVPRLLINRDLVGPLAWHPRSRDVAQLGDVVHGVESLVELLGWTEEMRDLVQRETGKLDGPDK
# Experimental: as §1, §2, §3
Activity [2],Activity (pmol/min/μg) [2],Compound,Activity [1]
0.125 pmol/min/µg,,"CC(=O)NCCCCC(NC(C)=O)C(=O)Nc1ccc2c(C)cc(=O)oc2c1 (centres unmarked) [Ac-Lys(Ac.)-AMC, Ac-Lys(ε-acetyl)-AMC, reference compound]",31 pmol/min/µg
,Undetectable,"CC(=O)N[C@@H](CCCCNC(=O)CCC(=O)O)C(=O)Nc1ccc2c(C)cc(=O)oc2c1 [Compound 1, N—(N^α-acetyl-L-Lysine(N^ε-succinyl))-AMC]",0.012 pmol/min/µg
0.012 pmol/min/µg,,"CCCCCCCCCCCCCC(=O)NCCCC[C@H](NC(C)=O)C(=O)Nc1ccc2c(C)cc(=O)oc2c1 [Compound 4, N—(N^α-acetyl-L-Lysine(N^ε-myristoyl))-AMC]",0.819 pmol/min/µg
0.002 pmol/min/µg,,"COC(=O)CCC(=O)NCCCC[C@H](NC(C)=O)C(=O)Nc1ccc2c(C)cc(=O)oc2c1 [Compound 5, N—(N^α-acetyl-L-Lysine(N^ε-methyl succinyl))-AMC]",1.764 pmol/min/µg
